Here are results for five molecules from patent US20250250581A1, “HERBICIDE-RESISTANT POLYPEPTIDE AND APPLICATION THEREOF” (SHANDONG SHUNFENG BIOTECHNOLOGY CO.LTD., priority 2022, published 2025).

The subject of experiment [1] is wild-type Nipponbare rice. Kind of experiment: Seed germination on ½ MS medium with isoxaflutole, wild-type Nipponbare. The format is in vivo. The text has this: (§1) In this study, the base editor mediates genetic transformation through Agrobacterium, and the recipient variety was Nipponbare (NIP). After obtaining TO transgenic plants, the genotype of the target site was identified by PCR and sequencing, and the mutant individuals were transplanted to the field and T1 generation seeds were harvested. In order to verify the resistance of the mutant to herbicides, the harvested T1 generation seeds were dehulled, disinfected, and then inoculated on ½ MS medium with different HPPD herbicides. We selected the herbicide isoxaflutole, and the final concentration was set to 400 nM, while the tolerance concentration of wild-type Nipponbare rice to isoxaflutole during the seed germination stage was about 100 nM. Seed germination and seedling growth status were observed and counted 10 days after inoculation. […] To further confirm its resistance, we transplanted the green seedlings of YX6 into the greenhouse and sprayed them with 100 μM isoxaflutole one month later. The tolerance concentration of wild-type Nipponbare rice to isoxaflutole during the seedling stage was about 40 μM.

For experiment [2], the system named is transgenic plant numbered YX6 (T1 generation seeds). Kind of experiment: Seed germination on ½ MS medium with isoxaflutole, YX6 T1 seeds. The format is in vivo, rice. The note with it: 400 nM in ½ MS medium, 10 days after inoculation.
Excerpt: as §1

Experiment [3] relates to transgenic plants (ZmHIR1) in rice variety Xiushui 134. In words: Herbicide spraying of T0 transgenic seedlings overexpressing ZmHIR1. The note with it: 50 mg/L (139 μM) spray. The format is in vivo. The protocol: (§2) Verifying the herbicide resistance of the above two genes (ZmHIR1 and SqHIR1): cloning these two genes, respectively, and overexpressing them in the rice variety Xiushui 134. The TO generation transgenic seedlings were sprayed with 50 mg/L (139 μM) herbicide isoxaflutole for resistance identification, and the results are shown in FIGS. 10-11.

Experiment [4] concerns transgenic plants (SqHIR1) in rice variety Xiushui 134. Kind of experiment: Herbicide spraying of T0 transgenic seedlings overexpressing SqHIR1. The format is in vivo. As to conditions: 50 mg/L (139 μM) spray. The protocol:
as §2

Experiment [5] concerns rice YX6 mutant (OE-HIR1). Kind of experiment: Herbicide spraying of plants, YX6 mutant. As to conditions: for rank order of resistance of the YX6 mutant (OE-HIR1) to different herbicides: comparison among herbicides sprayed. The format is in vivo.
Excerpt: as §1
(§3) To further confirm the relationship between gene LOC_Os02g09720 and the herbicide isoxaflutole, we designed two different sgRNA targets in the coding region of gene LOC_Os02g09720 and knocked out the gene using CRISPR/Cas9 in the wild-type Nipponbare rice and YX6 resistant rice backgrounds. After obtaining TO transgenic plants, the two target regions were sequenced, and homozygous knockout plants were selected and sprayed with herbicides together with wild-type plants and YX6 resistant plants. The concentration of isoxaflutole was set to 40 μM. The phenotype was observed two weeks later. […] We named this gene HIR1 (HPPD INHIBITOR RESISTANCE 1), and its encoded protein is HIR1 protein. The amino acid sequence is shown in SEQ ID No.1. The genotype of the wild-type Nipponbare plant is HIR1, and the knockout plant is hir1.
(§4) In order to further determine the resistance strength of rice YX6 mutant (OE-HIR1), we set up three high concentration gradients of isoxaflutole to spray it (200 μM, 400 μM, 800 µM), with wild-type Nipponbare plants (HIR1) and wild-type Nipponbare HIR1 gene knockout plants (hir1) as controls. […] The tolerance range of rice YX6 mutant (OE-HIR1) to isoxaflutole may be higher, even reaching 1200-1500 μM, while the tolerance concentration of wild-type Nipponbare plants to isoxaflutole was about 40 μM, and its resistance is estimated to be increased by 30 times.
(§5) HPPD herbicides mainly include triketones, pyrazolones, isoxazolones, diketonitriles, and benzophenones. In order to determine whether the rice YX6 mutant (OE-HIR1) is resistant to other HPPD herbicides, we selected the herbicides: mesotrione, tembotrione, an unlisted quinotrione-methyl analog (Y13287), topramezone, and pyrasulfotole, and sprayed them with wild-type Nipponbare rice as the control.

Experiment [6] has as its system resistant plant YX6 HIR1 knockout plant hir1 (YX6). Kind of experiment: Herbicide spraying of plants, HIR1 knockout in YX6 background. The format is in vivo, rice. As to conditions: 40 μM spray, two weeks later, LOC_Os02g09720 knockout in YX6 background.
Excerpt: as §3

Experiment [7] deals with wild-type (WT) rice plants, variety Xiushui 134. Kind of experiment: Herbicide spraying for resistance identification, wild-type Xiushui 134. The format is in vivo. As to conditions: 50 mg/L (139 μM) spray. The procedure: as §2
Experiment [8] concerns wild-type Nipponbare HIR1 knockout plant hir1 (NIP). Kind of experiment: Herbicide spraying of plants, HIR1 knockout in wild-type background. The format is in vivo, rice. The note with it: 40 μM spray, two weeks later, LOC_Os02g09720 knockout in wild-type background.
Excerpt: as §3

Experiment [9] relates to wild-type Nipponbare plants (HIR1). Kind of experiment: Herbicide spraying of plants, wild-type Nipponbare. The format is in vivo, rice.
Excerpt: as §1, §3, §4, §5

[10] abbreviates: 400 μM spray, YX6 mutant (OE-HIR1).

For the molecule `CS(=O)(=O)c1cc(C(F)(F)F)ccc1C(=O)c1cnoc1C1CC1` [isoxaflutole], the “seed germination and seedling growth status” value in experiment [1] (400 nM in ½ MS medium, 10 days after inoculation, wild-type Nipponbare) is “obvious bleaching symptoms of phytotoxicity”; in experiment [2] it was “seedlings remained green normally”. In experiment [1] (wild-type Nipponbare rice, seed germination stage), the “tolerance concentration during the seed germination stage” value was “about 100 nM”. In addition, the phenotype after spraying entry in experiment [3] is “basically remain green, with normal plant height and good growth status”; in experiment [4] it was “basically remained green, with normal plant height and good growth status”; in experiment [5] (40 μM spray, two weeks later, YX6 plants), “not affected and grew normally”; in experiment [5] (100 μM spray, after two weeks, YX6), “not affected at all”; in [5] (800 μM spray, YX6 mutant (OE-HIR1)), “could still grow normally”; in experiment [6] it was “bleached, withered, and died gradually”. In addition, the phenotype after spraying result in experiment [7] is “become dwarfed, yellow, and dry”; in experiment [8] it was “bleached, withered, and died gradually”; in experiment [9] (40 μM spray, two weeks later, wild-type plants), “bleaching and wilting, but still survived”; in experiment [9] (100 μM spray, after two weeks, wild-type Nipponbare) it was “completely bleached and withered”. Further, the “resistance increase versus wild-type Nipponbare” value in experiment [5] (YX6 mutant (OE-HIR1) vs wild type tolerance about 40 μM, estimated) was roughly 30 times. In addition, in [5] (YX6 mutant (OE-HIR1), 'may be higher, even reaching'), the tolerance range was in the range of 1200 to 1500 µM. Further, the “tolerance concentration during the seedling stage” value in experiment [9] (wild-type Nipponbare, spraying) was “about 40 μM”.
As for `CS(=O)(=O)c1ccc(C(=O)C2C(=O)CCCC2=O)c([N+](=O)[O-])c1` [mesotrione], the phenotype after spraying entry in experiment [5] (setting [10]) is “had no phytotoxicity and could grow normally without bleaching”; in [9] (400 μM spray, wild-type plants), “had all bleached and suffered certain phytotoxicity”. In addition, in experiment [5], the “rank order of resistance of the YX6 mutant (OE-HIR1) to different herbicides” value (“rank order … to different herbicides” below) is “sulfone pyrazone>topramezone≈tembotrione>mesotrione≈quinotrione-methyl analog”.
Turning to `Cc1nn(C)c(O)c1C(=O)c1ccc(C(F)(F)F)cc1S(C)(=O)=O` [pyrasulfotole], the phenotype after spraying result in experiment [5] (setting [10]) was “had no phytotoxicity and could grow normally without bleaching”; in experiment [9] (400 μM spray, wild-type plants) it was “had all bleached and suffered certain phytotoxicity”. Besides, in experiment [5], the “rank order … to different herbicides” value is “sulfone pyrazone>topramezone≈tembotrione>mesotrione≈quinotrione-methyl analog”.
Consider `CS(=O)(=O)c1ccc(C(=O)C2C(=O)CCCC2=O)c(Cl)c1COCC(F)(F)F` [tembotrione], for which the phenotype after spraying result in experiment [5] (setting [10]) was “had no phytotoxicity and could grow normally without bleaching”; in experiment [9] (400 μM spray, wild-type plants), “had all bleached and suffered certain phytotoxicity”. Further, the “rank order … to different herbicides” value in experiment [5] is given as “sulfone pyrazone>topramezone≈tembotrione>mesotrione≈quinotrione-methyl analog”.
For `Cc1c(C(=O)c2cnn(C)c2O)ccc(S(C)(=O)=O)c1C1=NOCC1` [topramezone], the phenotype after spraying entry is “had no phytotoxicity and could grow normally without bleaching” in experiment [5] (setting [10]); “had all bleached and suffered certain phytotoxicity” in [9] (400 μM spray, wild-type plants). Besides, the “rank order … to different herbicides” value in experiment [5] is reported as “sulfone pyrazone>topramezone≈tembotrione>mesotrione≈quinotrione-methyl analog”.
